Reference: patent US20200046617A1, “Composition For Combating The Signs Of Ageing Of The Skin And Hair And Nails” (TOMCAT INTERNATIONAL LIMITED, priority 2017, published 2020)

Columns and labels:
Type in all cases: cell-based
human fibroblasts [1] = assay: Intracellular ATP production by cultivated human fibroblasts (chemiluminescence-based assay); details: resveratrol 1 μM, betaine 1 mM or mixture; for ATP (μM per cell) Mean value: 120 min incubation, mean of 4 measurements; for ATP Increase (%): with respect to ATP level in untreated cells, 120 min
Method: Human fibroblasts were cultured at 37° C. in wet atmosphere with 5% CO2, on MEM supplemented with glucose, serum and glutamine. A solution containing trans-resveratrol and/or betaine is added to the culture medium:
The primary fibroblast cultures are incubated for 120 min with resveratrol at a final concentration of 1 μM, betaine at a concentration of 1 mM or a mixture of the two.
The cell viability is measured after incubation by fluorescence. The intracellular ATP concentration is measured by a chemiluminescence-based assay; the mean of 4 measurements is taken.
The intracellular ATP concentrations are expressed in μM of ATP per viable cell and percent of ATP increase is calculated with respect to the ATP level in untreated cells.

human fibroblasts [2] = assay: Mitochondrial mass of FK866-treated human fibroblasts (Nonyl Acridine Orange probe, flow cytometry); details: for Effect of treatment against FK866 on mitochondrial mass (in words): fibroblasts treated with FK866; for Mitochondrial mass Increase (%): vs FK866 2.5 nM non treated
Method: Human fibroblasts were cultured at 37° C. in wet atmosphere with 5% CO2, on MEM supplemented with glucose, serum and glutamine. The cells are treated with a chemical agent (FK866) in the presence or absence of the following compounds: Trans-resveratrol and Betaine. Agent FK866 reduces the cell mitochondrial mass, thereby mimicking one of the signs of ageing.
Under these conditions, the ability of the active ingredient to increase the mitochondrial mass is assessed.
After 24 h treatment, the mitochondrial mass is therefore measured using the Nonyl Acridine Orange (NAO, Invitrogen) probe which fluoresces at 533 nm. The cell viability can be measured by DAPI staining. A flow cytometry analysis is conducted with a FACS LSRII and the results analysed by FlowJo software.

Col1A1 = Col1A1 gene expression in cutaneous fibroblasts (quantitative real-time PCR); details: 24 h, resveratrol 4 μM, betaine 5 mM or both; for Relative expression of Col1A1 Mean value: relative to untreated (ΔΔCt); for Relative expression of Col1A1 Increase (%): vs untreated
Method: Cutaneous fibroblasts were cultured for 24 h with resveratrol, betaine or mixtures of the two compounds.
For the gene expression analysis, the total RNAs were extracted from the fibroblast cultures and the expression measured by quantitative real-time PCR. RNA extraction was carried out using an RNeasy Mini Kit (Qiagen). The total RNAs were used for the cDNA synthesis using the iScript cDNA synthesis Kit (Biorad). The PCR reactions were conducted using the mix LightCycler® 480 SYBR Green I Master (Roche). To compare the relative expressions, the Δ ΔCt method was used. The relative expression of the gene of interest is represented by the expression variation compared with the untreated samples.

[3] = in presence of FK866 2.5 nM, 24 h, betaine 5 mM, resveratrol 25 μM or both
[4] = 24 h, betaine 5 mM, resveratrol 25 μM or both

Compound: C[N+](C)(C)CC(=O)[O-] [Betaine, trimethylglycine]
- ATP (μM per cell) Mean value (human fibroblasts [1]): 0.080 μM per cell
- ATP Increase (%) (human fibroblasts [1]): 20%
- Effect of treatment against FK866 on mitochondrial mass (in words) (human fibroblasts [2]): protects against the effects of FK866
- Mitochondrial mass (fluorescence units) Mean (human fibroblasts [2]; [3]): 1574 fluorescence units
- Mitochondrial mass Increase (%) (human fibroblasts [2]; [4]): 19%
- Relative expression of Col1A1 Mean value (Col1A1): 1.28
- Relative expression of Col1A1 Increase (%) (Col1A1): 28%

Compound: O=C(/C=C/c1cccnc1)NCCCCC1CCN(C(=O)c2ccccc2)CC1 [FK866, reference compound]
- Mitochondrial mass Decrease (%) (human fibroblasts [2]; FK866 2.5 nM alone vs basal, 24 h): 10%
- Mitochondrial mass (fluorescence units) Mean (human fibroblasts [2]; FK866 2.5 nM alone, 24 h treatment): 1326 fluorescence units
- Effect of FK866 on mitochondrial mass of fibroblasts (in words) (human fibroblasts [2]; FK866 alone): decreases the mitochondrial mass

Compound: Oc1ccc(C=Cc2cc(O)cc(O)c2)cc1 [Resveratrol, 3,5,4′-trihydroxystilbene]
- ATP (μM per cell) Mean value (human fibroblasts [1]): 0.086 μM per cell
- ATP Increase (%) (human fibroblasts [1]): 28%
- Effect of treatment against FK866 on mitochondrial mass (in words) (human fibroblasts [2]): protects against the effects of FK866
- Mitochondrial mass (fluorescence units) Mean (human fibroblasts [2]; [3]): 2285 fluorescence units
- Mitochondrial mass Increase (%) (human fibroblasts [2]; [4]): 72%
- Relative expression of Col1A1 Mean value (Col1A1): 1.22
- Relative expression of Col1A1 Increase (%) (Col1A1): 22%
